These results are taken from patent US12239623B2, “Sleep-improving compositions and methods of use” (priority 2023, dated 2025).

What all share (format): in vivo
Experiment [1] has as its system male BALB/c mice. Nature of the experiment: Sleep duration and sleep latency in mice (Example 1). As to conditions: pentobarbital 42 mg/kg, combos together with caffeine. How it is done: (§1) Five male BALB/c mice per treatment arm (age: 8 weeks; weight: […]) were housed in a controlled environment with a 12:12-h light-dark cycle at 22° C. and were provided with mice chow and water ad libitum. The mice were fasted for 24 hours prior to the study, which was conducted between 1 pm and 5 pm and under the National Institutes of Health's Guidelines for the Care and Use of Laboratory Animals and approved by the Ethics Committee of the Medipol University. The mice were divided into eight groups and anesthetized with urethane (1.25 g/kg, i.p.; Sigma U2500) and carefully placed in a stereotaxic frame. Rectal temperatures were maintained between 36.5° C. and 37.0° C. using a feedback-controlled-heating system (507221F, Harvard Apparatus, ABD). Lidocaine (2.0%) was applied on the incision area to prevent any occurrence of pain. A midline incision was made on the skin along the sagittal suture of the skull. A part of the cranium overlying the left parietal cortex was removed using a dental drill. […]
(§2) After the administration, the mice were placed in individual cages and subjected to measurements of sleep latency and duration. Brain electrical activity were monitored and recorded for a total of 2 hours. […]

Experiment [2] relates to GluN1. Nature of the experiment: Western blot of brain GluN1 in caffeine-treated mice (Example 1). The conditions noted are these: FIG. 1E, male BALB/c mice brain, reduced from 100%, caffeine 7.5 mg/kg i.p., combos given together with caffeine, after two hours. The protocol: as §1, with “drill. Ag—AgCl ball electrodes were placed on the left somatomotor cortex (1 mm anterior/1.5 mm lateral from bregma; 3 mm posterior/1.5 mm lateral from bregma) and the reference electrode was attached to the left foot for an ECoG recording. Group 1 were treated with saline. To induce sleep disturbance, 7.5 mg/kg caffeine was injected intraperitoneally at minute 15 of recordings to groups 2-8.” for “drill.”
(In general: A western blot detects proteins with antibodies after separation by electrophoresis.)

The subject of experiment [3] is GluN2A. The experiment is described as follows: Western blot of brain GluN2A in caffeine-treated mice (Example 1). The conditions noted are these: FIG. 1F, male BALB/c mice brain, reduced from 100%, caffeine 7.5 mg/kg i.p., combos given together with caffeine, after two hours. How it is done: as §1, with “drill. Ag—AgCl ball electrodes were placed on the left somatomotor cortex (1 mm anterior/1.5 mm lateral from bregma; 3 mm posterior/1.5 mm lateral from bregma) and the reference electrode was attached to the left foot for an ECoG recording. Group 1 were treated with saline. To induce sleep disturbance, 7.5 mg/kg caffeine was injected intraperitoneally at minute 15 of recordings to groups 2-8.” for “drill.”

Experiment [4] has as its system 5-HT1A. Nature of the experiment: Western blot of brain 5-HT1A in caffeine-treated mice (Example 1). As to conditions: FIG. 1G, male BALB/c mice brain, reduced from 100%, caffeine 7.5 mg/kg i.p., combos given together with caffeine, after two hours. How it is done: as §1, with “drill. Ag—AgCl ball electrodes were placed on the left somatomotor cortex (1 mm anterior/1.5 mm lateral from bregma; 3 mm posterior/1.5 mm lateral from bregma) and the reference electrode was attached to the left foot for an ECoG recording. Group 1 were treated with saline. To induce sleep disturbance, 7.5 mg/kg caffeine was injected intraperitoneally at minute 15 of recordings to groups 2-8.” for “drill.”

Experiment [5] deals with GluA1. Nature of the experiment: Western blot of brain GluA1 in caffeine-treated mice (Example 1). The conditions noted are these: FIG. 1D, male BALB/c mice brain, reduced from 100%, caffeine 7.5 mg/kg i.p., combos given together with caffeine, after two hours. How it is done:
as §1, with “drill. Ag—AgCl ball electrodes were placed on the left somatomotor cortex (1 mm anterior/1.5 mm lateral from bregma; 3 mm posterior/1.5 mm lateral from bregma) and the reference electrode was attached to the left foot for an ECoG recording. Group 1 were treated with saline. To induce sleep disturbance, 7.5 mg/kg caffeine was injected intraperitoneally at minute 15 of recordings to groups 2-8.” for “drill.”

In experiment [6] the test system is GABAB receptor 2. Nature of the experiment: Western blot of brain GABAB receptor 2 in caffeine-treated mice (Example 1). The conditions noted are these: FIG. 1C, male BALB/c mice brain, reduced from 100%, caffeine 7.5 mg/kg i.p., combos given together with caffeine, after two hours. The protocol: as §1, with “drill. Ag—AgCl ball electrodes were placed on the left somatomotor cortex (1 mm anterior/1.5 mm lateral from bregma; 3 mm posterior/1.5 mm lateral from bregma) and the reference electrode was attached to the left foot for an ECoG recording. Group 1 were treated with saline. To induce sleep disturbance, 7.5 mg/kg caffeine was injected intraperitoneally at minute 15 of recordings to groups 2-8.” for “drill.”

The test system of experiment [7] is male BALB/c mice. Nature of the experiment: EEG amplitude and frequency in caffeine-treated mice (Example 1). The conditions noted are these: caffeine 7.5 mg/kg, compositions in combination with caffeine. How it is done: as §1, §2
The subject of experiment [8] is OVX female mice. The experiment is described as follows: Serum melatonin by ELISA in OVX female mice (Example 3). The conditions noted are these: FIG. 3, saline control about 11 pg/ml, caffeine 7.5 mg/kg, composition given with caffeine. How it is done: (§3) Both OVX female mice and male mice were divided into three groups: group treated with saline, group treated with 7.5 mg/kg caffeine, and group treated with a combination of 7.5 mg/kg caffeine and the magnesium glycinate, L-theanine, GABA, SAMe and propyl gallate composition. […] Levels of serum melatonin were measured by ELISA kits.

Experiment [9] has as its system GABAB receptor 1. Nature of the experiment: Western blot of brain GABAB receptor 1 in caffeine-treated mice (Example 1). The conditions noted are these: FIG. 1B, male BALB/c mice brain, reduced from 100%, caffeine 7.5 mg/kg i.p., combos given together with caffeine, after two hours. How it is done:
as §1, with “drill. Ag—AgCl ball electrodes were placed on the left somatomotor cortex (1 mm anterior/1.5 mm lateral from bregma; 3 mm posterior/1.5 mm lateral from bregma) and the reference electrode was attached to the left foot for an ECoG recording. Group 1 were treated with saline. To induce sleep disturbance, 7.5 mg/kg caffeine was injected intraperitoneally at minute 15 of recordings to groups 2-8.” for “drill.”

For experiment [10], the system named is male mice. Nature of the experiment: Serum melatonin by ELISA in male mice (Example 3). As to conditions: FIG. 3, saline control about 33 pg/ml, caffeine 7.5 mg/kg, composition given with caffeine. The protocol: as §3
Experiment [11] relates to GABAA receptor 2. Nature of the experiment: Western blot of brain GABAA receptor 2 in caffeine-treated mice (Example 1). The conditions noted are these: FIG. 1A, male BALB/c mice brain, reduced from 100%, caffeine 7.5 mg/kg i.p., combos given together with caffeine, after two hours. How it is done:
as §1, with “drill. Ag—AgCl ball electrodes were placed on the left somatomotor cortex (1 mm anterior/1.5 mm lateral from bregma; 3 mm posterior/1.5 mm lateral from bregma) and the reference electrode was attached to the left foot for an ECoG recording. Group 1 were treated with saline. To induce sleep disturbance, 7.5 mg/kg caffeine was injected intraperitoneally at minute 15 of recordings to groups 2-8.” for “drill.”

Molecules are shown by their SMILES.

For `CCCC(C)C1(CC)C(=O)NC(=O)NC1=O` (stereo not shown) [pentobarbital], the sleep duration result in experiment [1] (FIG. 1J) is “about 50 minutes”. The sleep latency result in [1] (FIG. 1K) is reported as “about 2 minutes”.
On to `Cn1c(=O)c2c(ncn2C)n(C)c1=O` [caffeine], for which the “percentage of GluN1 receptor” value in experiment [2] is “about 35%”. For the same compound, the “percentage of GluN2A receptor” value in experiment [3] is “about 20%”. Further, the “percentage of 5-HT1A receptor” value in experiment [4] is “about 20%”. For the same compound, in [5], the “percentage of GluA1 receptor” value is on record as “about 26%”. Besides, in experiment [6], the “percentage of GABAB receptor 2” value was “about 28%”. In experiment [7] (FIG. 1H, from about 100 mV, within 75 minutes), the EEG amplitude result is “about 70 mV”. Moreover, the EEG frequency entry in experiment [7] (FIG. 1I, from about 100 spikes, in 90 minutes) is “about 200 spikes”. Besides, the melatonin level entry was “about 8 pg/ml” in experiment [8] and “about 12 pg/ml” in experiment [10]. In addition, in [9], the “percentage of GABAB receptor 1” value is “about 18%”. Besides, the “percentage of GABAA receptor 2” value in experiment [11] is “about 25%”.
